# Results from ChEMBL document CHEMBL2331454, “Synthesis and structure-activity relationship studies of novel dual inhibitors of soluble epoxide hydrolase and 5-lipoxygenase” (J Med Chem, 2013).
# Biological target: Soluble epoxide hydrolase (Homo sapiens)
# Assay: Inhibition of human recombinant soluble epoxide hydrolase expressed in Escherichia coli after 30 mins by PHOME-based fluorescence assay
row,IC50,SMILES
1,439 nM,COc1cc(-c2nc3ccc(Cl)cn3c2NC(C)C)ccc1OCCCNC(=O)Nc1ccc(C(F)(F)F)cc1
2,696 nM,COc1cc(-c2nc3ccc(F)cn3c2NC2CCCCC2)ccc1OCCCNC(=O)Nc1ccc(OC(F)(F)F)cc1
3,439 nM,COc1cc(-c2nc3ccc(C)cn3c2NC2CCCCC2)ccc1OCCCNC(=O)Nc1ccc(C(F)(F)F)cc1
4,1110 nM,COc1ccc(-c2nc3ccc(C)cn3c2NC2CCCCC2)cc1OCCCNC(=O)Nc1ccc(OC(F)(F)F)cc1
5,649 nM,COc1cc(-c2nc3ccc(F)cn3c2NC2CCCCC2)ccc1OCCCNC(=O)Nc1ccc(C(F)(F)F)cc1
6,116 nM,COc1cc(-c2nc3ccc(C)cn3c2NC2CCCCC2)ccc1OCCCNC(=O)Nc1ccc(OC(F)(F)F)cc1
7,336 nM,COc1cc(-c2nc3ccc(Cl)cn3c2NC2CCCCC2)ccc1OCCCNC(=O)Nc1ccc(C(F)(F)F)cc1
8,614 nM,COc1cc(-c2nc3ccc(C)cn3c2NC2CCCC2)ccc1OCCCNC(=O)Nc1ccc(C(F)(F)F)cc1
9,473 nM,COc1cc(-c2nc3ccc(C)cn3c2NC2CCCC2)ccc1OCCCNC(=O)Nc1ccc(OC(F)(F)F)cc1
10,190 nM,COc1cc(-c2nc3ccc(C)cn3c2NC2CCCCC2)ccc1OCCCNC(=O)NC1CCCCC1
11,2240 nM,O=C(Nc1ccc(Cl)cc1)N1CCC(CO)CC1
12,620 nM,COc1cc(-c2nc3ccc(C)cn3c2NC(C)C)ccc1OCCCNC(=O)Nc1ccc(C(F)(F)F)cc1
13,480 nM,COc1cc(-c2nc3ccc(F)cn3c2NC2CCCC2)ccc1OCCCNC(=O)Nc1ccc(C(F)(F)F)cc1
14,192 nM,Cc1ccc2nc(-c3ccc(OCCCNC(=O)Nc4ccc(C(F)(F)F)cc4)c(Cl)c3)c(NC3CCCCC3)n2c1
